From US20230141603A1, “BENZODIAZEPINE DERIVATIVES AS GABA A GAMMA1 PAM” (Hoffmann-La Roche Inc., priority 2021, published 2023)

Key:
[1] = target: T1, h-GABAA α2β2γ1 (Homo sapiens, UniProt P47869+Q8N1C3); test: Two-electrode voltage clamp electrophysiology in Xenopus oocytes, modulation of GABA EC20 current; format: cell-based; parameters: host or cells: Xenopus laevis oocytes, RNA micro-injection; details: for Efficacy (GABA)% / Fold increase h-GABA-A α2β2γ1 oocyte @ 30-fold Ki: Table 2; for Efficacy (GABA)%: % modulation of GABA EC20 = 100*(Fold increase−1), compound at approx. 30-fold Ki; for Fold increase h-GABA-A α2β2γ1 oocyte @ 30-fold Ki: compound at approx. 30-fold its Ki α2β2γ1, GABA EC20, Xenopus oocytes
T1 sequence (P47869 29-451): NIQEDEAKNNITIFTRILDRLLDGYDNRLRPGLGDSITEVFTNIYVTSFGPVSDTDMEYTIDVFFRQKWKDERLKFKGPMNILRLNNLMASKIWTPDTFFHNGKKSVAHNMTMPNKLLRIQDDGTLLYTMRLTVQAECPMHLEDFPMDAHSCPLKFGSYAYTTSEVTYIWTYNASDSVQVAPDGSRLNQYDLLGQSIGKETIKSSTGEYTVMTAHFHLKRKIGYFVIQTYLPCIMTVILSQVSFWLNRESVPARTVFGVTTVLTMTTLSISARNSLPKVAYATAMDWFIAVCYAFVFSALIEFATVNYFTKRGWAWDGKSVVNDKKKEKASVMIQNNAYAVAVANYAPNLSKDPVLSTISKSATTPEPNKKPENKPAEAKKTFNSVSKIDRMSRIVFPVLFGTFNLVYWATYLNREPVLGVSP
T1 sequence (P47870 25-512 partner limits assumed): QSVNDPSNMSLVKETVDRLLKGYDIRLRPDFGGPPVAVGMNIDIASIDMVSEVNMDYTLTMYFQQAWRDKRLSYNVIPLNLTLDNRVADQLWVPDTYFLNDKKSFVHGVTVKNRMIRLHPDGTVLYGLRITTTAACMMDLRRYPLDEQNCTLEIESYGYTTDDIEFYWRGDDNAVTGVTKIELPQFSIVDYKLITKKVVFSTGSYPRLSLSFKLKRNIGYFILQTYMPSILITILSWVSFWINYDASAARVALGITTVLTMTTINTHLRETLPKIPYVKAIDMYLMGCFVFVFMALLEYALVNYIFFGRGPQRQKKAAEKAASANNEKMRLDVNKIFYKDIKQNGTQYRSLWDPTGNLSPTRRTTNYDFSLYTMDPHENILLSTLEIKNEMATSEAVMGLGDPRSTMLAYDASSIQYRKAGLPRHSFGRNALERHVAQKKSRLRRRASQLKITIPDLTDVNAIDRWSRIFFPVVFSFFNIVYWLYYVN
T1 sequence (Q8N1C3 36-465): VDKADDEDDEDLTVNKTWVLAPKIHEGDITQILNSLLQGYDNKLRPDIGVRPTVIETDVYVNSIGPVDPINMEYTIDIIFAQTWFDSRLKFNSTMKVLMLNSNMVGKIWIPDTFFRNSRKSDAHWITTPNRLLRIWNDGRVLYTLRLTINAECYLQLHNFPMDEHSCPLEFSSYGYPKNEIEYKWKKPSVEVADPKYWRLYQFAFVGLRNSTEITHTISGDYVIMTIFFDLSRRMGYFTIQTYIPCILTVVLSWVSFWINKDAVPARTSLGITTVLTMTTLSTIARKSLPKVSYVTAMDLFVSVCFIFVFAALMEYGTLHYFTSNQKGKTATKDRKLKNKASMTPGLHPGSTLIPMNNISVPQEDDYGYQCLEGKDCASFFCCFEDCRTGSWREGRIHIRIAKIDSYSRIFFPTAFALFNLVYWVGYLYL
Method: Xenopus laevis oocytes at maturation stages V-VJ were used for the expression of cloned mRNA encoding GABAA receptor subunits. Oocytes ready for RNA micro-injection were bought from Ecocyte, Castrop-Rauxel, Germany and stored in modified Barth's medium (composition in mM: NaCl 88, KCl 1, NaHCO3 2.4, HEPES 10, MgSO4 0.82, CaNO3 0.33, CaCl2 0.33, pH=7.5) at 20° C. until the experiment.
Oocytes were plated in 96-well plates for microinjection using the Roboinject automated instrument (MultiChannelSystems, Reutlingen, Germany). Approximately 50 nL of an aqueous solution containing the RNA transcripts for the subunits of the desired GABAA receptor subtype was injected into each oocyte. […] Oocytes were kept in modified Barth's medium (composition in mM: NaCl 88, KCl 1, NaHCO3 […], HEPES 10, MgSO4 0.82, CaNO3 0.33, CaCl2 0.33, pH=7.5) at 20° C. until the experiment.
Electrophysiological experiments were performed using the Roboocyte instrument (MultiChannelSystems, Reutlingen, Germany) on days 3 to 5 after the micro-injection of mRNA. During the experiment the oocytes were constantly superfused by a solution containing (in mM) NaCl 90, KCl 1, HEPES 5, MgCl2 1, CaCl2 1 (pH 7.4). Oocytes were impaled by two glass microelectrodes (resistance: 0.5-0.8 MΩ) which were filled with a solution containing KCl 1M+K-acetate 1.5 M and voltage-clamped to −80 mV. The recordings were performed at room temperature using the Roboocyte two-electrode voltage clamp system (Multichannelsystem). After an initial equilibration period of 1.5 min GABA was added for 1.5 min at a concentration evoking approximately 20% of a maximal current response (EC20). After another rest interval of 2.5 min GABA was again added evoking a response of similar amplitude and shape. […] Current traces were recorded at a digitization rate of 10 Hz during and shortly before and after the GABA application.
Each compound and concentration was tested on at least 3 oocytes. Different oocytes were used for different compound concentrations.
For the analysis, the digitized current traces of the first and second GABA response were superimposed and, if necessary, rescaled to equal maximal amplitudes. The ratio between the two responses during the time interval of test compound application was calculated point by point. The extremum of the resulting “ratio trace” was taken as the efficacy (“Fold increase”) of the compound expressed as “% modulation of GABA EC20” (100*(Fold increase−1)).

[2] = target: T2, h-GABAA α1β3γ2 (Homo sapiens, UniProt P14867+P18507); test: Radioligand binding assay, [3H]Flumazenil competition, HEK293F membranes; details: for LogSel: Log[Ki α1β3γ2 (nM)/Ki α2β2γ1 (nM)]; for γ2/γ1 Selectivity Ratio: Ki α1β3γ2 (nM)/Ki α2β2γ1 (nM)
T2 construct: expressed in transfected cells; host or cells: HEK293F cells, membranes
Method: The affinity of compounds at GABAA γ2 subunit-containing receptors was measured by competition for [^3H]Flumazenil (81.1 Ci/mmol; Roche) binding to HEK293F cells expressing human (transiently transfected) receptors of composition α1β3γ2.
Harvested pellets from HEK293F cells expressing the different GABAA γ2 receptor subtypes were resuspended in Mannitol Buffer pH 7.2-7.4 and processed as described above for the cells expressing the GABAA γ1 subunit-containing receptors.
Assays were incubated to equilibrium for 1 hour at 4° C. and harvested onto GF/C uni-filters (Packard) by filtration using a Packard harvester and washing with ice-cold wash buffer (50 mM Tris; pH 7.5). After drying, filter-retained radioactivity was detected by liquid scintillation counting. Ki values were calculated using Excel-Fit (Microsoft) and are the means of two determinations.

Structure (SMILES)	potentiation of the GABA-induced current ([1]; α2β2γ1 GABAA receptor subtype expressing oocytes, reference PAMs)	Ki [2]	LogSel ([2]; Table 3)	Efficacy (GABA)% [1]	Fold increase h-GABA-A α2β2γ1 oocyte @ 30-fold Ki [1]	γ2/γ1 Selectivity Ratio ([2]; Table 1)	LogSel ([2]; Table 1)	γ2/γ1 Selectivity Ratio ([2]; Table 3)
Cc1ncc2n1-c1ccc(Cl)cc1C(c1ccccc1F)=NC2 [Midazolam, reference compound]	~60%	0.005 µM	−2.2	–	–	–	–	–
Fc1cccc(F)c1C1=NCc2nnc(-c3cccnn3)n2-c2ccc(Cl)c(Cl)c21 [Example 14, 7,8-dichloro-6-(2,6-difluorophenyl)-1-pyridazin-3-yl-4H-[1,2,4]triazolo[4,3-a][1,4]benzodiazepine]	–	0.299 µM	1.9	71%	1.71	86.6	1.94	86.6
Cc1nnc2n1-c1ccc(C(F)(F)F)c(Cl)c1C(c1c(F)cccc1F)=NC2 [Example 40, 7-chloro-6-(2,6-difluorophenyl)-1-methyl-8-(trifluoromethyl)-4H-[1,2,4]triazolo[4,3-a][1,4]benzodiazepine]	–	1.01 µM	1.6	75%	1.75	37.5	1.57	37.5
Cc1nnc2n1-c1ccc(I)c(Cl)c1C(c1c(F)cccc1F)=NC2 [Example 41, 7-chloro-6-(2,6-difluorophenyl)-8-iodo-1-methyl-4H-[1,2,4]triazolo[4,3-a][1,4]benzodiazepine]	–	0.121 µM	–	70%	1.70	21.9	1.34	–
Fc1ccccc1C1=NCc2nnc(-c3ccncn3)n2-c2ccc(Cl)c(Cl)c21 [Example 18, 7,8-dichloro-6-(2-fluorophenyl)-1-pyrimidin-4-yl-4H-[1,2,4]triazolo[4,3-a][1,4]benzodiazepine]	–	0.865 µM	–	70%	1.70	40.1	1.60	–
COCCc1nnc2n1-c1ccc(Cl)c(Cl)c1C(c1c(F)cccc1F)=NC2 [Example 19, 7,8-dichloro-6-(2,6-difluorophenyl)-1-(2-methoxyethyl)-4H-[1,2,4]triazolo[4,3-a][1,4]benzodiazepine]	–	0.829 µM	–	72%	1.72	31.9	1.50	–
Cc1ccc2c(c1Cl)C(c1c(F)cccc1F)=NCc1nnc(-c3ccncn3)n1-2 [Example 49, 7-chloro-6-(2,6-difluorophenyl)-8-methyl-1-pyrimidin-4-yl-4H-[1,2,4]triazolo[4,3-a][1,4]benzodiazepine]	–	1.47 µM	–	57%	1.57	104.3	2.02	–
Fc1cccc(F)c1C1=NCc2nnc(-c3cccnn3)n2-c2ccc(C(F)(F)F)c(Cl)c21 [Example 38, 7-chloro-6-(2,6-difluorophenyl)-1-pyridazin-3-yl-8-(trifluoromethyl)-4H-[1,2,4]triazolo[4,3-a][1,4]benzodiazepine]	–	1.43 µM	–	114%	2.14	113.4	2.05	–
Fc1cccnc1C1=NCc2nncn2-c2ccc(Cl)c(Cl)c21 [Example 60, 7,8-dichloro-6-(3-fluoro-2-pyridyl)-4H-[1,2,4]triazolo[4,3-a][1,4]benzodiazepine]	–	1.11 µM	–	132%	2.32	28.6	1.46	–
Fc1cccc(F)c1C1=NCc2nncn2-c2ccc(Br)c(Cl)c21 [Example 7, 8-bromo-7-chloro-6-(2,6-difluorophenyl)-4H-[1,2,4]triazolo[4,3-a][1,4]benzodiazepine]	–	0.205 µM	–	56%	1.56	24.2	1.38	–
COc1ccc2c(c1Cl)C(c1c(F)cccc1F)=NCc1nnc(-c3cccnn3)n1-2 [Example 57, 7-chloro-6-(2,6-difluorophenyl)-8-methoxy-1-pyridazin-3-yl-4H-[1,2,4]triazolo[4,3-a][1,4]benzodiazepine]	–	2.11 µM	–	149%	2.49	36.5	1.56	–
Cc1nnc2n1-c1ccc(Cl)c(Cl)c1C(c1ncccc1F)=NC2 [Example 71, 7,8-dichloro-6-(3-fluoro-2-pyridyl)-1-methyl-4H-[1,2,4]triazolo[4,3-a][1,4]benzodiazepine]	–	1.08 µM	–	99%	1.99	28.7	1.46	–
Fc1cccnc1C1=NCc2nnc(-c3cccnn3)n2-c2ccc(C(F)(F)F)c(Cl)c21 [Example 72, 7-chloro-6-(3-fluoro-2-pyridyl)-1-pyridazin-3-yl-8-(trifluoromethyl)-4H-[1,2,4]triazolo[4,3-a][1,4]benzodiazepine]	–	10.3 µM	–	630%	7.30	342.1	2.53	–
